Values quoted from earlier work, collected in patent US11191866B2, “Dressing enabling the controlled and prolonged release of metformin” (Urgo Recherche Innovation et Developpement, priority 2016, dated 2021).

Conditions: rats; radioactively marked, deposited on a wound in a gel

CN(C)C(=N)N=C(N)N [metformin]
time remaining at the local level on the wound: remained for a very short period of time at the local level
